{"source": "patent US11957671B2", "about": "“Benzodioxane modulators of leukotriene A4 hydrolase (LTA4H) for prevention and treatment of aging-associated diseases” (Alkahest, Inc., priority 2021, dated 2024)", "format_in_all_cases": "in vivo, mouse", "key": {"[1]": {"tested_on": "aged wild type (WT; C57BL/6) mice", "assay": "Contextual Fear Conditioning (CFC)", "details": "10 mg/kg PO daily, after 8 days of treatment", "procedure": "Mice were brought into the testing room immediately before their trial to avoid exposure to sounds and scents from testing. Day 1: For training, mice were placed in the chambers, bright house light and fan on, for 2 minutes. Then an auditory cue (2000 Hz, 70 dB, conditioned stimulus (CS)) was presented for 30 seconds. A 2 second foot shock (0.6 mA; unconditioned stimulus (US)) was administered for the final 2 seconds of the CS. This procedure was repeated once, each after a 2-minute interval, and the mouse was removed from the chamber 30 seconds after the second shock. The pans, chamber walls and grid floors were cleaned with 70% ethanol between trials. Day 2: […] after the training, the mouse was returned to the same chamber in which the training occurred (memory for context), and freezing behavior was recorded for 3 min. The mouse was returned to its home cage. The pans, chamber walls, and grid floors were cleaned with 70% ethanol between trials. Day 3: 24 hours after context testing, the mouse was returned to the same chamber and freezing was recorded in a novel environment (altered context) and in response to the cue (memory for cue). […] The mouse was placed in the novel environment and freezing was recorded for 2 minutes. The auditory cue (2000 Hz, 70 dB, CS) was then presented for 30 seconds, and freezing was again recorded for 2 minutes. […]"}, "aged C57BL6 mice": {"tested_on": "aged C57BL6 mice", "assay": "Inverted Wire Hang", "details": "12 days of dosing", "procedure": "Mice were brought into the experimental room for at least 20 minutes of acclimation to the experimental room conditions (bright lighting) prior to testing. Each mouse was placed in the center of the grid. Then swiftly in one continuous motion the grid was inverted 180 degrees to suspend the mouse upside down with their nose being the last part of the mouse to be suspended. The timer was started once the mouse was completely suspended and time to fall was recorded. Mice were tested 3 times with no rest period between each test with a maximum suspension time of 120 seconds. The maximum and average time to fall were scored for each animal."}, "[2]": {"tested_on": "Male C57BL/6 mice aged 20-21 months", "assay": "Example 15: gene expression and histology, Compound 1 versus SC-57461A", "details": "Compound 1 1 mg/kg, SC-57461A 2.5 mg/kg PO bid one month", "procedure": "Male C57BL/6 mice aged 20-21 months are treated with Vehicle, Compound 1, or SC-57461A commercially available LTA4H inhibitor. The mice are dosed with Compound 1 at 1 mg/kg or SC-57461A at 2.5 mg/kg PO bid for one month. Mice are anesthetized and blood and tissues are collected for further analysis. Blood is collected via cardiac puncture in syringes pre-filled with Heparin. Brains are collected following ACSF perfusion and processed for single cell RNA sequencing of either labeled endothelial cells (experiment 1) or NeuN-positive neuronal nuclei (experiment 2). In a+ separate cohort of mice, brains are collected following 4% PFA perfusion for histological endpoints (experiment 3)."}, "[3]": {"tested_on": "hippocampal neurons of aged C57BL/6 mice", "assay": "Single cell RNA sequencing of NeuN+ hippocampal nuclei (CA1, DG)", "procedure": "Aged C57BL/6 mice (21 months of age) were treated for 1 month bid po with vehicle, 1 mg/kg Compound 1, or 2.5 mg/kg SC57461A (n=3 mice per treatment group). NucSeq For Mouse Brain Tissue protocol from 10× Genomics was used to isolate mouse hippocampus nuclei. Approximately 65 mg of brain tissue were used per treatment. Nonidet P40 was used to lyse cell walls and isolated nuclei were stained with Draq5 and NeuN antibodies for FACS sorting. Approximately 5,000 nuclei were collected for each sample. Eight samples were collected for each treatment for a total of 40,000 nuclei per treatment. These samples were prepped for sequencing using the 10× Genomics Chromium Next GEM kit.\nGO terms are generated using the g:Profiler Web server (https://bitt.cs.ut.ee/gprofiler) to analyze differential regulated gene lists. Reported are the top 20 gene ontology (GO terms) terms from the biological process category, sorted by significance as determined by P-value. This list was filtered to report significant GO terms that include less than 1000 genes."}, "aged C57BL/6 mice": {"tested_on": "aged C57BL/6 mice", "assay": "Long term potentiation (LTP) in hippocampal slices", "details": "1 month bid po, 1 mg/kg Compound 1 or 2.5 mg/kg SC57461A", "procedure": "Aged C57BL/6 mice (21 months of age) were treated for 1 month bid po with vehicle, 1 mg/kg Compound 1, or 2.5 mg/kg SC57461A (n=5 mice per treatment group). Electrophysical recordings were performed at AfaSci, Inc, as follows. Animals were deeply anesthetized with halothane and decapitated. The brain was quickly taken out and placed into ice-cold artificial cerebrospinal fluid (ACSF) that was continuously bubbled with 5% CO2/95% O2. The ACSF was composed of (in mM) NaCl 130.0, KCl 2.5, KH2PO4 1.2, CaCl2 2.4, MgSO4 1.3, NaHCO326.0 and glucose 10.0 (pH 7.4). Hippocampal slices (400 μm thick) were prepared using a tissue slicer (Stoelting Co., IL) and incubated at room temperature in continuously oxygenated ACSF for at least 1 h before being recorded with submerged mode in chamber (Harvard Apparatus) at room temperature. Data were collected with an Axopatch-2B amplifier and pClamp 10.4 program (Axon Instruments) through digidata 1320A.\nField population spike (PS) was recorded using glass microelectrode filled with ACSF (resistance: 1-3 MO). Biphasic current pulses (0.2 ms duration for one phase, 0.4 ms in total) were delivered in 10 s intervals through a concentric bipolar stimulating electrode (FHC, Inc.). […] To record field population spikes in dorsal dentate gyrus, the stimulating electrode was placed on the hippocampal fissure to stimulate the bypassing perforant pathway fibers and the recording electrode was placed on inner part of granular cell layer. To record field EPSPs in DG, the stimulating electrode was placed on the hippocampal fissure to stimulate the bypassing perforant pathway fibers and the recording electrode was placed on inner part of granular cell layer. Slices were recorded within 8 hours after dissection. Titanic stimulation consisted of 2 trains of 100 pulses (0.4 ms bipolar pulse duration, 100 Hz) lasting for 1 second with 5 seconds of interval. The slope of EPSP and amplitude of population spike were measured from the initial phase of negative wave with Clampfit10.4. Each data point was measured with average of 3 consecutive traces. LTP was plotted as the percentage to baseline following high frequency stimulation (mean±SEM)."}, "[4]": {"details": "1 month bid po, 1 mg/kg Compound 1 or 2.5 mg/kg SC57461A"}}}
{"compound": "O=C(O)C1CCN(Cc2ccc([C@H]3COc4ccccc4O3)cc2)CC1", "note": "[Example 1, 1-{4-[(2S)-2,3-dihydro-1,4-benzodioxin-2-yl]benzyl}piperidine-4-carboxylic acid]", "values": [{"measurement": "percent time freezing during testing phase of CFC", "setting": "[1]", "result": "increased freezing time"}, {"measurement": "maximum hang time in the wire hang test", "setting": "aged C57BL6 mice", "result": "no change in maximum hang time"}, {"measurement": "endothelial gene expression in brain compared to SC-57461A", "setting": "[2]", "result": "more robust change in endothelial gene expression"}, {"measurement": "histology of endothelial cells and neurons compared to SC-57461A", "setting": "[2]", "result": "more robust changes in histology"}, {"measurement": "neuronal gene expression in brain compared to SC-57461A", "setting": "[2]", "result": "more robust change in neuronal gene expression"}, {"measurement": "CA1 neuronal gene changes", "setting": "[3]; [4]", "result": "many significant gene changes to neurons in the CA1 region of the hippocampus"}, {"measurement": "DG neuronal gene changes", "setting": "[3]; [4]", "result": "many significant gene changes to neurons in the DG region of the hippocampus"}, {"measurement": "Dcc gene expression in the dentate gyrus", "setting": "[3]; [4]", "result": "upregulation of Dcc gene expression"}, {"measurement": "Spock3 gene expression in the dentate gyrus", "setting": "[3]; [4]", "result": "upregulation of Spock3 gene expression"}, {"measurement": "Biological Process GO terms, CA1 hippocampal neurons", "setting": "[3]; long-term treatment", "result": "changes to “synaptic signaling” and “synaptic organization”"}, {"measurement": "Biological Process GO terms, DG hippocampal neurons", "setting": "[3]; long-term treatment", "result": "changes to synapses"}, {"measurement": "LTP, CA1 region of the hippocampus", "setting": "aged C57BL/6 mice", "result": "increase in LTP"}, {"measurement": "LTP, DG region of the hippocampus", "setting": "aged C57BL/6 mice", "result": "increase in LTP"}]}
